Results published in patent US4111955A, “N-Trihalomethanesulfenyl carbamoyloximino di-sulfur heterocyclic compounds” (priority 1976, dated 1978).
Values after ≈ are worked out from the molar mass of the structure shown.

Key:
Type in all cases: in vivo
[1] = system: southern armyworm (Prodenia eridania, (Cram.)); assay: Southern Armyworm Leaf Spray Test; parameters: key to pesticidal activity rating, Armyworm: A: excellent control; B: partial control; C: no control
Experimental: Larvae of the southern armyworm (Prodenia eridania, (Cram.)), reared on Tendergreen bean plants at a temperature of 80°±5° F. and a relative humidity of 50±5 percent, constituted the test insects.
The test compounds were formulated by diluting the stock suspension with water to give a suspension containing 500 parts of test compound per million parts of final formulation. Potted Tendergreen bean plants of standard height and age were placed on a revolving turntable and sprayed with 100-110 milliliters of test compound formulation by use of a DeVilbiss spray gun set at 10 psig air pressure. This application, which lasted 25 seconds, was sufficient to wet plants to run-off. As a control, 100-110 milliliters of a water-acetone-emulsifier solution containing no test compound were also sprayed on infested plants. When dry, the paired leaves were separated and each one was placed in a 9 centimeter Petri dish lined with moistened filter paper. Five randomly selected larvae were introduced into each dish and the dishes were closed. The closed dishes were labeled and held at 80°-85° F. for 3 days. Although the larvae could easily consume the whole leaf within 24 hours, no more food was added. Larvae which were unable to move the length of the body, even upon stimulation by prodding, were considered dead. Percent mortality was recorded for various concentration levels.
(§1) In these tests the pesticidal activity of the compounds against aphid, mite, Southern Armyworm, Bean Beetle and House fly was rated as follows:
(§2) The LD50 values shown in the above Table II were determined by testing the compositions over an appropriate concentration range obtained by serial dilution of the stock suspension with water. The percent kill was plotted on log-probit graph paper versus parts per million concentration, and the LD50 read from an eye-fitted line drawn through the resultant points.

[2] = system: Mexican bean beetle (Epilachna varivestis, Muls.); assay: Mexican Bean Beetle Leaf Spray Test; parameters: key to pesticidal activity rating, Bean beetle: A: excellent control; B: partial control; C: no control
Experimental: Fourth instar larvae of the Mexican bean beetle (Epilachna varivestis, Muls.), reared on Tendergreen bean plants at a temperature of 80°±5° F. and 50±5 percent relative humidity, were the test insects.
The test compounds were formulated by diluting the stock suspension with water to give a suspension containing 500 parts of test compound per million parts of final formulation. Potted Tendergreen bean plants of standard height and age were placed on a revolving turntable and sprayed with 100-110 milliliters of test compound formulation by use of a DeVilbiss spray gun set at 10 psig air pressure. This application, which lasted 25 seconds, was sufficient to wet plants to run-off. As a control, 100-110 milliliters of a water-acetone-emulsifier solution containing no test compound were also sprayed on infested plants. When dry, the paired leaves were separated and each was placed in a 9 centimeter Petri dish lined with moistened filter paper. Five randomly selected larvae were introduced into each dish, and the dishes were closed. The closed dishes were labeled and held at a temperature of 80°±5° F. for 3 days. Although the larvae could easily consume the leaf within 24 to 48 hours, no more food was added. Larvae which were unable to move the length of the body, even upon stimulation, were considered dead.
as §1, §2

[3] = system: aphid, mite, Southern Armyworm, Bean Beetle and House fly; assay: Overall pesticidal activity / insect toxicity compared with methylcarbamoyl derivatives; conditions: all cases except the bean-beetle; Table II
From the text: as §1
In the above Table, A indicates excellent control, B indicates partial control and C indicates no control. For comparison purposes, there is provided immediately below the data presented for the trihalomethanesulfenyl derivative the activity measurements achieved from the corresponding methyl-carbamoyl derivative adjacent to the chemical designation --NHCH3.
as §2

SMILES: CN(SC(Cl)(Cl)Cl)C(=O)ON=C1CSCCS1 [2-[(N-METHYL-N-TRICHLOROMETHANESULFENYL)-CARBAMOYLOXIMINO]-1,4-DITHIANE]
- pesticidal activity rating, Armyworm ([1]; 500 parts per million, 3 days): A
- LC50 ([1]; Spodoptera eridania, 72 h, Table II, read-out: Insect Toxicity, LD50, Armyworm): 52 µg/mL (≈ 146 µM)
- LC50 ([2]; Epilachna varivestis, 72 h, leaf spray, Table II, read-out: Insect Toxicity, LD50, Mexican Bean beetle): 10 µg/mL (≈ 28.1 µM)
- insect toxicity on bean-beetle relative to the methylcarbamoyl composition ([2]; from LD50 values of Table II): five-fold improvement
- pesticidal activity rating, Bean beetle ([2]; leaf spray, 500 parts per million, 3 days): A
- insect toxicity relative to the methylcarbamoyl composition [3]: essentially equivalent
